Legend:
[1] = molecular target: T1, α-Synuclein (αS) aggregation (Homo sapiens, UniProt P37840); assay: Spin-down assay / SDS-PAGE of soluble and insoluble αS fractions; assay type: biochemical; details: 100 μM αS aggregated four days, indicated molar ratios
[2] = molecular target: T1, α-Synuclein (αS) aggregation; assay: Thioflavin T; assay type: biochemical; details: 100 μM αS in 1 × PBS, ligand at equimolar ratio, four days
[3] = system: UA196 worms (human αS and GFP in DA neurons); assay: Confocal count of healthy DA neurons in UA196 worms, early treatment; assay type: in vivo, C. elegans; details: UA196, 50 μM on day two
[4] = system: NL5901 worms (αS-YFP in body wall muscle cells); assay: Confocal count of αS-YFP inclusions in NL5901 worms; assay type: in vivo, C. elegans; details: NL5901, 50 μM on day two
αS = αS (Homo sapiens, UniProt P37840); assay: 2D HSQC; assay type: binding; details: 70 μM 15N αS, NS132 equimolar

Cc1ccc(NC(=O)c2ccc(NC(=O)c3ccc([N+](=O)[O-])c(NCCc4c[nH]c5ccccc45)n3)c(NCC3CCCCC3)n2)c(OCC(=O)OC(C)(C)C)n1 [NS132-P]
Antagonist activity by SDS-PAGE analysis [1]: poor antagonist of αS aggregation

Cc1ccc(NC(=O)c2ccc(NC(=O)c3ccc([N+](=O)[O-])c(NCCc4c[nH]c5ccccc45)n3)c(NCC3CCCCC3)n2)c(OCC(=O)O)n1 [NS132]
Effect on αS aggregation, ThT assay [2]: most potent antagonist | neuroprotective effect on degeneration of DA neurons [3]: very good neuroprotective effect | number of inclusions [4]: decrease in the number of inclusions | binding site of NS132 on αS (residues with changed amide peaks) (αS): residues 10-20, 36-43, and 50,55,59

Cc1ccc(NC(=O)c2ccc(NC(=O)c3ccc([N+](=O)[O-])c(NCCc4c[nH]c5ccccc45)n3)c(NCC3CCCCC3)n2)c(OCC(=O)NO)n1 [NS163]
Effect on αS aggregation, ThT assay [2]: potent antagonist of αS aggregation | neuroprotective effect on degeneration of DA neurons [3]: remarkable neuroprotective effect | % loss of the total number of DA neurons ([3]; up to 15 days): < 5%

Source: publication doi:10.1101/2022.07.11.499659v1 (bioRxiv, 2022)
